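Protocol summary: plate cells (96-well), add compound at 5 concentrations, incubate 48 h, interpolate endpoints linearly. At the GI50, growth is halved. TGI denotes the concentration required for complete inhibition of growth.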
Tests used:
Test in all cases: NCI anticancer screen, dose series, 48 h
[1] = test system: NCI-H522 lung
[2] = test system: EKVX NSCLC
[3] = test system: LOX IMVI melanoma
[4] = test system: HOP-62 NSCLC
[5] = test system: HCC-2998 colon
[6] = test system: SK-OV-3 ovarian
[7] = test system: OVCAR-8 ovarian
[8] = test system: NCI-H226 lung
[9] = test system: TK-10 renal
[10] = test system: NCI-H460 lung

SMILES	TGI [1]	TGI [2]	TGI [3]	TGI [4]	TGI [5]	TGI [6]	TGI [7]	TGI [8]	TGI [9]	GI50 [1]	GI50 [2]	GI50 [3]	GI50 [4]	GI50 [5]	GI50 [6]	GI50 [7]	GI50 [8]	GI50 [9]	GI50 [10]	TGI [10]
CCOC(=O)/C(=C/c1ccc(C(=O)OC)cc1)N(CC)CC	> 100 µM	> 100 µM	> 100 µM	> 100 µM	> 100 µM	> 100 µM	> 100 µM	79 µM	> 100 µM											
COC12C=C/C(=C(/C(=O)OCc3ccccn3)C(=O)CCCCCCCCC3(OC)C=C/C(=C(/C(=O)OCc4ccccn4)C(=O)CCCCCCCC1)O3)O2	1.71 µM	3.72 µM	0.417 µM	1.06 µM	0.518 µM	60.9 µM	> 100 µM	0.648 µM	4.19 µM	0.345 µM	614 nM	188 nM	0.318 µM	212 nM	0.889 µM	0.406 µM	0.25 µM	1.69 µM		
Cc1cc2c(cc1Cl)S/C(=C/C(=O)O)C(Nc1ccc3ncsc3c1)=NS2(=O)=O	> 67.6 µM	> 52.8 µM	62.9 µM	> 42.9 µM		> 52 µM	> 100 µM	> 65.3 µM	51.1 µM	13 µM	> 16900 nM	22400 nM	17 µM		> 33.4 µM	32.7 µM	25.3 µM	17.9 µM	16.2 µM	> 100 µM
Nc1ccc(C2=CC(c3ccc(Cl)cc3)N3C=CSC3=N2)cc1 (stereo unspecified)	11.3 µM		5.65 µM	16.4 µM	3.61 µM	25.5 µM	48.1 µM	> 100 µM	28.5 µM	3.51 µM		2340 nM	4.38 µM	1830 nM	5.07 µM	4.16 µM	9.36 µM	11 µM	20.2 µM	> 100 µM
C[CH2][Ge]([CH2]C)([CH2]C)[O]C(=O)C(OC(C)=O)c1ccccc1 (stereo unspecified)	> 100 µM	> 100 µM	> 100 µM	> 100 µM	> 100 µM	> 100 µM	> 100 µM	> 100 µM	> 100 µM	> 100 µM	38300 nM	> 100000 nM	> 100 µM	> 100000 nM	> 100 µM	> 100 µM	> 100 µM	> 100 µM	> 100 µM	> 100 µM
CC(=O)c1c2c(cc3c1CC1(C3)Cc3cc4c(c(C(C)=O)c3C1)CCC4)CCC2	> 100 µM		> 100 µM	> 100 µM	> 100 µM		> 100 µM		> 100 µM											> 100 µM
COC(=O)N/N=C(\C)c1c(O)cc(C)oc1=O		> 100 µM	44.5 µM	> 100 µM	> 100 µM	> 100 µM	> 100 µM	> 100 µM	> 100 µM											> 100 µM
CNC(=O)c1c(NC(=O)c2ccc(C(C)(C)C)cc2)sc2c1CCC(=O)C2	1.41 µM	1.7 µM	1.31 µM	3.32 µM	2.04 µM	6.17 µM	3.19 µM	1.99 µM	1.97 µM	0.197 µM	381 nM	190 nM	0.835 µM	581 nM	1.4 µM	0.292 µM	0.558 µM	0.374 µM	0.352 µM	1.47 µM
COC(=O)C1Cc2c(n(C)c3ccccc23)C(CCC(=O)O)N1Cc1ccccc1 (stereo unspecified)	91.2 µM	> 100 µM	> 100 µM	> 100 µM	> 100 µM	> 100 µM	> 100 µM	75.2 µM	> 100 µM											80.7 µM
COc1ncc(Nc2ncc([C@@H](C)N3CCN(S(C)(=O)=O)CC3)cc2-c2nc(C)nc(N)n2)cc1F	59.1 µM	12.6 µM	12.5 µM	75.1 µM	> 100 µM	0.394 µM	> 100 µM	> 100 µM	1.22 µM	1.09 µM	486 nM	320 nM	0.192 µM	211 nM	0.0171 µM	2.2 µM	2.59 µM	0.0222 µM	0.135 µM	> 100 µM
C[N+](C)(C)CC(=O)N/N=C(/C(=O)Nc1ccc(Br)cc1)C1C(=O)NC(=O)NC1=O	> 100 µM	> 100 µM	> 100 µM	> 100 µM	> 100 µM	> 100 µM		> 100 µM	> 100 µM											> 100 µM
CN(C)C(=N/O)/C(=N\O)N(C)C	> 100 µM	> 100 µM	> 100 µM	> 100 µM	> 100 µM	> 100 µM	> 100 µM	> 100 µM	> 100 µM											> 100 µM
COC(=O)C1=C(O)[C@H](C(=O)OC)C2(O)C(C(=O)OC)[C@H](c3ccc(OC(=O)C(C)c4ccc(CC(C)C)cc4)cc3)C[C@@H]1[C@@H]2C(=O)OC (stereo partly specified)	> 50 µM	6.7 µM	14.9 µM	> 50 µM	15.8 µM	> 50 µM	> 50 µM		> 50 µM	14.3 µM	970 nM	6060 nM	31.7 µM	7950 nM	38.5 µM	13.1 µM		30.6 µM	13.2 µM	> 50 µM
CC(=O)[O-].Cn1ccnc1CNCc1nccn1C.[Cu+2].[O-][Cl+3]([O-])([O-])[O-]	> 100 µM	> 100 µM	> 100 µM	> 100 µM	> 100 µM	> 100 µM	> 100 µM	> 100 µM	> 100 µM	> 100 µM	> 100000 nM	> 100000 nM	> 100 µM	> 100000 nM	> 100 µM	> 100 µM	> 100 µM	> 100 µM	51.2 µM	> 100 µM
COc1cc(Nc2ncc(-c3ccccc3)o2)cc(OC)c1	> 25 µM	> 25 µM	> 25 µM	> 25 µM	> 25 µM	> 25 µM	> 25 µM	> 25 µM	> 25 µM	> 25 µM	> 25000 nM	> 25000 nM	> 25 µM	> 25000 nM	> 25 µM	> 25 µM	> 12.5 µM	> 25 µM	> 20.4 µM	> 25 µM

Source: PubChem BioAssay (NCI)
